Experiment [1] deals with T1, 5-hydroxytryptamine receptor 2C (Homo sapiens, UniProt P28335).
T1 sequence (P28335 whole entry): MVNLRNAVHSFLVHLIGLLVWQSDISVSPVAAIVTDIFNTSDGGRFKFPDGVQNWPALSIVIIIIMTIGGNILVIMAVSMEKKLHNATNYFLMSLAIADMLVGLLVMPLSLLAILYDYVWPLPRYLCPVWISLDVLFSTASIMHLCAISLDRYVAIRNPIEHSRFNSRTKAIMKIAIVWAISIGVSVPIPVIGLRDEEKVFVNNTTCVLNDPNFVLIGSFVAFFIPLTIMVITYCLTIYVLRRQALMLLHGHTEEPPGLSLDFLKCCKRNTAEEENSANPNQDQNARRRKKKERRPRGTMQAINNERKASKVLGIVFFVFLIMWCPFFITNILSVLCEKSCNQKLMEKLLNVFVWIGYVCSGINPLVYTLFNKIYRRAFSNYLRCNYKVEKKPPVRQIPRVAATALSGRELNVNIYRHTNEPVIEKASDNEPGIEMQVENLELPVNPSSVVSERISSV

In experiment [2] the target is 5-hydroxytryptamine receptor 5A (Homo sapiens, UniProt P47898).
For experiment [3], the target named is 5-hydroxytryptamine receptor 7 (Homo sapiens, UniProt P34969).
For experiment [4], the target named is 5-hydroxytryptamine receptor 6 (Homo sapiens, UniProt P50406).
Experiment [5] deals with T2, 5-hydroxytryptamine receptor 1F (Homo sapiens) (UniProt P30939).
T2 sequence (whole entry): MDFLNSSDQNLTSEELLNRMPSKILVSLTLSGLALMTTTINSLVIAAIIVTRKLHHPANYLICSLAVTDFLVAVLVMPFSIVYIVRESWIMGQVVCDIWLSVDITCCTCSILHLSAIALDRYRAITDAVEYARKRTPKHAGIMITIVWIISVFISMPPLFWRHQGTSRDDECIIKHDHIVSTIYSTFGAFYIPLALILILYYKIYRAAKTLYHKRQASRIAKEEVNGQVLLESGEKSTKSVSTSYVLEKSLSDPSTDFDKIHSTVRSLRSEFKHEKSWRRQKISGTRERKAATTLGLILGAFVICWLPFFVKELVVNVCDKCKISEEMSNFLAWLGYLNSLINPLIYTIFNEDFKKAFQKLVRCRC
The experiment in a line: Binding affinity to 5HT1F receptor after 1.5 hrs by scintillation counter.

Active and inactive are the calls of the source. The calls are words filed in the database; no cut-off is given here.

5-hydroxytryptamine receptor 7, sequence (P34969 whole entry): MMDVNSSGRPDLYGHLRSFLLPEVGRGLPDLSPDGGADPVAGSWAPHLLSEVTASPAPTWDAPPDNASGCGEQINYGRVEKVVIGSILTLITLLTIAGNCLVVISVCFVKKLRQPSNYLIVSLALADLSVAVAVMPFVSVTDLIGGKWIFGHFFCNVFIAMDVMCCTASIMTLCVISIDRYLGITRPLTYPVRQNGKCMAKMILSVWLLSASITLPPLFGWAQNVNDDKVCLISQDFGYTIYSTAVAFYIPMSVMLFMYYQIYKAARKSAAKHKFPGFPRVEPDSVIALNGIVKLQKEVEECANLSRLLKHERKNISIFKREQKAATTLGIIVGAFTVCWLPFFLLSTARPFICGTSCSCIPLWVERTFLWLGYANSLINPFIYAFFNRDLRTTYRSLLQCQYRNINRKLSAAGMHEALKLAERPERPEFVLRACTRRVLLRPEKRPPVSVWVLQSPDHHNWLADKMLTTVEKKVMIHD
5-hydroxytryptamine receptor 6, sequence (P50406 whole entry): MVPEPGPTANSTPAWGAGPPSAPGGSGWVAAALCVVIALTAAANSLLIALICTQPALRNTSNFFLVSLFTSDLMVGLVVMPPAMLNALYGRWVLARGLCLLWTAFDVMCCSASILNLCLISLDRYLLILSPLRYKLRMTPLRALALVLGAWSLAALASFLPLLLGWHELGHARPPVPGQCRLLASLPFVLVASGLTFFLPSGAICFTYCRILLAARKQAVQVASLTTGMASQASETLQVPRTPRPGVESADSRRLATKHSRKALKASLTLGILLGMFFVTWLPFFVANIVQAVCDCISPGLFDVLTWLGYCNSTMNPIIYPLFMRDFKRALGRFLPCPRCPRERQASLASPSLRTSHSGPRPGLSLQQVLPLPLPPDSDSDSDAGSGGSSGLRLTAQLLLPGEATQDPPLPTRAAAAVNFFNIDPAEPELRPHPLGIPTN
5-hydroxytryptamine receptor 5A, sequence (P47898 whole entry): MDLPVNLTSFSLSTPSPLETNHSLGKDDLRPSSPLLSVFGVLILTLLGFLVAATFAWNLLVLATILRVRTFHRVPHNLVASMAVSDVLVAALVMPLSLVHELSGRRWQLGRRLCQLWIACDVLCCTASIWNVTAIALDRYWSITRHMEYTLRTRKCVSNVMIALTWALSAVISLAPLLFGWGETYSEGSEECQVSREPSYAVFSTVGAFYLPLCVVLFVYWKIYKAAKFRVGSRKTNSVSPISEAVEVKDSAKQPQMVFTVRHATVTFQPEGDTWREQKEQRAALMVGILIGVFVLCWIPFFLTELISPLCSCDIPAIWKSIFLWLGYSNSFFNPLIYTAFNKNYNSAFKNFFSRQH

Turning to `CNC(=O)c1cc(Oc2ccc(NC(=O)Nc3ccc(Cl)c(C(F)(F)F)c3)cc2)ccn1` [SORAFENIB], the Ki in experiment [1] was 0.417 µM; in experiment [2], 3.3 µM; in experiment [3], 7.07 µM; in experiment [4], 6.21 µM. For the same compound, the result in experiment [5] was inactive.

By Ki is commonly meant the equilibrium dissociation constant of an inhibitor or competing ligand from its target. High values mean lower affinity, low ones higher affinity.

The record behind these values is ChEMBL document CHEMBL2163296 (J Med Chem, 2012).
